Columns and labels:
[1] = tested on: ischemic heart models of rats; experiment: Heart protective (anti-ischemic) activity in ischemic heart models of anesthetized rats; format: in vivo; settings: 45 min occlusion, 90 min reperfusion
Procedure: Male rats (350-450 g, obtained from the Experimental Animal Team of the Korea Research Institute of Chemical Technology) were anesthetized by the intraperitoneal injection of pentobarbital at a dose of 75 mg/kg. After trachetomy, the rats were rendered to respire artificially at a rate of 60/min with a stroke volume of 10 ml/kg. Cannulars were inserted into the fermoral vein and the fermoral artery and used for drug administration and blood pressure measurement, respectively.
In the ischemic myocardium damage models, the body temperature has an important influence on the results. To avoid the change in the body temperature, a body temperature measuring probe was inserted into the rectum of each rat and the body temperature was constantly kept at 37 °C with the aid of a homeothermic blanket control unit.
Afterwards, during testing, a continuous measurement was made of the mean arterial blood pressures and heart rates from the rats. For the measurement of the blood pressure, a pressure transducer, such as that manufactured by Grass Ins., MA, U.S.A., identified as Model Statham P23XL, was used. The heart rate was measured by a tachometer, such as that manufactured by Gould Inc., OH, U.S.A., identified as Biotachometer. In addition, all of the changes occurring were continuously recorded through the Gould 2000 chart recorder, manufactured by Gould Inc.
The left coronary artery was occluded according to the Selye H. method as follows. The rats underwent a left thoracotomy operation for partial opening of the chest and the right-side chest was pressurized by the middle finger of the left hand to push the heart out. Immediately after the left anterior descending coronary artery hereinafter referred to as (LAD) was carefully stitched using a suture needle with 5-0 silk ligature, the heart was then repositioned in the thoracic cavity while both ends of the ligature were situated outside. The opposite ligature ends were passed through a PE tube (PE100, 2.5 cm) and allowed to stand loose for 20 min for stabilization. Via the cannula inserted into the femoral vein, vehicles or drugs were administered into the rats which were rendered to stand for 30 min in order to sufficiently elicit the efficacies of the drugs. BMS-180448 was used as a control drug and the i.v.administration dose was 0.3 mg/kg for all test drugs of interest and the control drug.
Next, the PE tube which had the doubled strands of the ligature passed therethrough was pushed toward the heart and then, set upright by tightly pulling end regions of the ligature with a hemostatic pincette while pressing the coronary artery. The PE tube was allowed to stand for 45 min for the occlusion of the coronary artery, followed by the removal of the hemostatic pincette and then, by the reperfusion for 90 min.
After the reocclusion of the coronary artery in accordance with the above procedure, the rats were administered with 2 ml of a 1% Evans blue through an intravenous route. Subsequently, an excess of pentobarbital was intravenously injected to kill the rats, after which the heart was removed and then, deprived of the right ventricle and both atria. The left ventricle was cut horizontally to the heart apex into 5 or 6 slices which were weighed. From the surface of each slice, images were input with the aid of a Hi-scope into a computer installed with an image analyzing program (Image Pro Plus). From the images input into the computer, the area of the normal blood stream tissue region which appeared blue in a computer monitor and the area which appeared colorless were measured. The percentage of the colorless area to the total area of each slice was calculated and multiplied by the weight of each slice to determine the area at risk (AAR) of each slice. […]

[2] = tested on: RAW 264.7 cells; experiment: Inhibition of LPS-induced NO production (Griess reagent); format: cell-based, murine; settings: Mus musculus, 24 hours; for inhibition at 33 µM: RAW264.7, 33 uM; for inhibition at 100 µM: RAW264.7, 100 uM
Procedure: Using RPMI1640 media supplemented with 10% fetal bovine serum (FBS), RAW 264.7 cells (obtained from American Type Culture Collection), a murine macrophage cell line, were cultured at 37 °C in a 5% CO2 incubator. The RAW264.7 cells were harvested and cell density was adjusted to 5x10^5/ml with a RPMI medium supplemented with 0.5% FBS and plated at 5x10^4 cells/well to 96-well plates, which were then cultured for 20 hr in a CO2 incubator. After removal of the media, the cells were pre-treated for 1 hour with fresh media containing 33 uM and 100 uM of test compounds. The test compounds were dissolved in DMSO and diluted to respective concentration in the media. In order to minimize DMSO effect on the nitric oxide formation by the RAW264.7 cells in the wells, the media were allowed to contain DMSO at a concentration of 0.1 % or less.
After completion of one hour pre-treatment, lipopolysaccharide (LPS, E. coli serotype 055:B5) was added to activate the cells, which were, then, maintained for 24 hours in a CO2 incubator. As a result of the activation of RAW264.7 cells with LPS, NO was formed. The NO released into the media was in a form of nitrite NO2^- and quantitatively measured using the Griess reagent. A control was treated only with vehicle instead of test compounds.
The inhibitory effects of the test compounds against NO production were determined as the reduction of NO quantity compared with that of the control group.

[3] = tested on: HUVEC; experiment: Inhibition of HUVEC tube formation on Matrigel; format: cell-based, Human; design: key: -: no effect; +/-: week effect; +: moderate effect; ++: strong effect
Procedure: HUVEC (Human umbilical vein endothelial cells, ATCC CRL-1730) were cultured, and tubulogenesis was induced in vascular endothelial cells by plating them onto the surface of Matrigel for several hours. The effects on tube formation of the test compounds were compared with the vehicle treated controls, then confirmed their in vitro anti-angiogenic effect indirectly.

[4] = tested on: Human LDL; experiment: Inhibition of copper-induced LDL oxidation (MDA, TBA method); format: biochemical; settings: CuSO4 10 uM, 18 hr
Procedure: Human LDL (sigma) was dissolved in distilled water at a concentration of 1 mg/ml. LDL was dialyzed against three changes of phosphate-buffered solution before oxidation to remove EDTA (ethylenediamine tetraacetate) at 4 °C for 18 hr. EDTA-free LDL (100 ug LDL protein/ml) was incubated in EDTA-free phosphate-buffered solution at 37 °C for 18 hr in the presence of CuSO4 (10 uM) under pretreatment with the test compounds or tochopherol of which final concentrations were 10^-9, 10^-7, and 10^-5 M. Blank was incubated without CuSO^., and vehicle was used as a solvent group. Oxidation was stopped at 4 °C by addition of EDTA (200 uM).
Copper (Cu^+2) facilitates the oxidation of LDL to produce malondialdehyde (MDA), thus the lipid peroxidation was determined by MDA quantification same as the above example 5 (1). The MDA quantification was estimated by reacting samples with 2-thiobarbituric acid (TBA) and measuring the absorbance at 530 nm. 1,1,3,3-Tetramethoxy propane (Sigma) was used as a standard agent, and calculated the quantity of MDA as nmol of MDA equivalents per mg protein. The inhibitory effect of the test compounds against the lipid peroxidation was evaluated by calculating MDA reduction rate of the test compounds compared with that of the control group.

Row | Compound | Anti-ischemic Activity (in vivo, rats) (0.3 mg/kg i.v.) IZ/AAR (%) [1] | inhibition at 33 µM [2] | inhibition at 100 µM [2] | Inhibitory Effects on Tube Formation ([3]; 100 uM) | % Inhibition ([4]; 10^-5 M) | % Inhibition ([4]; 10^-7 M, 0.1 µM) | % Inhibition ([4]; 10^-9 M, 0.001 µM) | Inhibitory Effects on Tube Formation ([3]; 10 uM)
1 | COC(OC)[C@@]1(C)Oc2ccc([N+](=O)[O-])cc2[C@H](NC(=NC#N)NCc2ccccc2)[C@H]1O [Example 24, (2S, 3R, 4S)-N''-cyano-N-(6-nitro-3,4-dihydro-3-hydroxy-2-methyl-2-dimethoxymethyl-2H-benzopyran-4-yl)-N'-benzylguanidine] | 48.48% | 16% | 48% | + |  |  |  | 
2 | COC(OC)[C@@]1(C)Oc2ccc([N+](=O)[O-])cc2[C@@H](NC(=NC#N)NCc2ccccc2)[C@@H]1O [Example 25, (2S, 3S, 4R)-N''-cyano-N-(6-nitro-3,4-dihydro-3-hydroxy-2-methyl-2-dimethoxymethyl-2H-benzopyran-4-yl)-N'-benzylguanidine] | 48.55% | 39% | 54% |  |  |  |  | 
3 | COC(OC)[C@@]1(C)Oc2ccc([N+](=O)[O-])cc2[C@H](NC(=NC#N)Nc2ccccc2Cl)[C@H]1O [Example 32, (2S, 3R, 4S)-N''-cyano-N-(6-nitro-3,4-dihydro-3-hydroxy-2-methyl-2-dimethoxymethyl-2H-benzopyran-4-yl)-N'-(2-chlorophenyl)guanidine] | 44.72% |  | 83% |  |  |  |  | 
4 | COC(OC)[C@@]1(C)Oc2ccc([N+](=O)[O-])cc2[C@@H](NC(=NC#N)NCc2ccccc2)[C@@H]1OC(C)=O [Example 38, (2S, 3S, 4R)-N''-cyano-N-(6-nitro-3,4-dihydro-3-acetoxy-2-methyl-2-dimethoxymethyl-2H-benzopyran-4-yl)-N'-benzylguanidine] | 51.13% | 56% | 85% |  |  |  |  | 
5 | COC(OC)[C@@]1(C)Oc2ccc(N)cc2[C@@H](NC(=NC#N)NCc2ccccc2)[C@@H]1O [Example 40, (2S, 3S, 4R)-N''-cyano-N-(6 - amino-3,4-dihydro-3-hydroxy-2-methyl-2-dimethoxymethyl-2H-benzopyran-4-yl)-N'-benzylguanidine] | 30.25% |  | 26% | ++ | 27.6% | 24.3% | 7.6% | +

Reference: patent EP1228058B1, “BENZOPYRANYL GUANIDINE DERIVATIVES, PROCESS FOR PREPARATION THEREOF, AND PHARMACEUTICAL COMPOSITIONS CONTAINING THEM” (Dongbu Hannong Chemical Co., Ltd., priority 1999, dated 2001)
